# Patent publication US8796321B2, “Compounds, compositions and methods comprising oxadiazole derivatives” (PATH Drug Solutions, priority 2008, dated 2014)
# System: cholera toxin (CTX) induced net fluid secretion in intestinal loops
# Parameters: species or system mice (CD1 strain)
# Conditions: mouse, in vivo
Structure (SMILES),closed loop % inhibition @ 10 μg [%],closed loop % inhibition @ 100 μg [%]
"CC(C)(C)C(=O)CN(Cc1cccc(C(F)(F)F)c1)C(=O)c1nc(-c2cc(Br)c(O)c(Br)c2)no1 [compound 1, 3-(3,5-dibromo-4-hydroxyphenyl)-N-(3,3-dimethyl-2-oxobutyl)-N-(3-(trifluoromethyl)benzyl)-1,2,4-oxadiazole-5-carboxamide]",69.4,87.1
"O=C(NCc1ccc(Oc2ccccc2)cc1)c1nc(-c2cc(Br)c(O)c(Br)c2)no1 [compound 13, 3-(3,5-dibromo-4-hydroxyphenyl)-N-(4-phenoxybenzyl)-1,2,4-oxadiazole-5-carboxamide]",88.6,94.7
"O=C(NCc1cccc(OC(F)(F)F)c1)c1noc(-c2cc(Br)c(O)c(Br)c2)n1 [compound 65, 5-(3,5-dibromo-4-hydroxyphenyl)-N-(3-(trifluoromethoxy)benzyl)-1,2,4-oxadiazole-3-carboxamide]",,94.6
"O=C(NCc1cc(F)cc(F)c1)c1noc(-c2cc(Cl)c(O)c(Cl)c2)n1 [compound 112, 5-(3,5-dichloro-4-hydroxyphenyl)-N-(3,5-difluorobenzyl)-1,2,4-oxadiazole-3-carboxamide]",,51
"O=C(NCc1cccc(OC(F)(F)F)c1)c1noc(-c2cc(Cl)c(O)c(Cl)c2O)n1 [compound 120, 5-(3,5-dichloro-2,4-dihydroxyphenyl)-N-(3-(trifluoromethoxy)benzyl)-1,2,4-oxadiazole-3-carboxamide]",,62.3
